Laboratory results taken from patent publication US11684598B2, “Use of cannabinoids in the treatment of epilepsy” (priority 2015, dated 2023).
Where two headings read alike, the source gives them in different places.

Columns and labels:
[1] = tested on: PTZ-induced generalised seizures; assay: Acute PTZ-induced model of generalised seizure; format: in vivo, rat
Procedure: Adult male Wistar Kyoto rats were used in the acute PTZ model of seizure (>P24, 70-110 g). Animals were housed five per cage in a heat regulated room (21° C.) on a 12:12 h day/night cycle (lights on 0800) in 50% humidity and given ad libitum access to standard laboratory chow (PCD Mod C, Special Diet Services, Wiltham, UK) and water. All procedures were undertaken during white light hours.
(§1) A PTZ (Sigma-Aldrich, Poole, UK) stock solution was made in 0.9% w/v NaCl for the experimental procedure.
PTZ antagonises GABA inhibition via binding to the t-butyl-bicycl-phosphorothionate site of GABAA receptors. Moreover, this chemically-induced model can be indicative of effects against absence seizures. PTZ (90 mg/kg) was used to induce seizures in adult male Wistar rats (n=15 per group) with experiment dose randomised using a Latin square design. Animals were placed in their 6 L Perspex tanks and allowed to acclimatise to their environment for 10 min, before receiving one of the cannabinoid doses (see Table 5) in vehicle, or volume-matched dose of vehicle alone to serve as a negative control. 60 min after test compound or vehicle administration, animals were injected with PTZ (90 mg/kg, i.p.) to induce seizures and animal behaviour was recorded for 30 min.
Videos of PTZ-induced seizures were scored offline with a standard seizure severity scale appropriate for generalised seizures (Table 6).
Videos of seizure behaviour generated from the custom built observational system were scored offline according to seizure scales appropriate for PTZ model (Table 6) using Observer Video-Pro software (Noldus, Wageningen, The Netherlands). For the PTZ model of seizure, intra- and inter-observer agreements of behaviour scoring were assessed using the reliability analysis function of the observer Video-Pro software: 1 s tolerance window; Cohen's Kappa coefficient≥0.95.
Specific markers of seizure behaviour and development were assessed and compared between vehicle control and drug groups. The latency (s) to seizure onset and the percentage of animals that developed tonic-clonic seizures was noted (see Table 6). In addition, the maximum seizure severity and the percentage mortality in each group were determined for the acute PTZ model of generalised seizure.
The effect of drug on latency to seizure onset and maximum seizure severity were assessed using Krustal-Wallis with post-hoc Mann-Whitney U-tests. Drug effects on the percentage of animals that developed tonic-clonic seizures and percentage mortality were assessed using Chi-squared with post-hoc Fisher exact tests. In all cases, P≤0.05 was considered significant.

[2] = Toxicokinetics from toxicological studies in dogs, daily oral (gavage) administration; format: in vivo, dog; conditions: dog, plasma, po, 100 mg/kg, Day 1, mean; for AUC0-t: read-out: AUC0-t; for Cmax: read-out: Cmax
Procedure: Samples were taken from the jugular vein into lithium heparin. Samples were mixed gently by hand then continuously for at least 2 minutes on automatic mixer and placed in a Kryorack until centrifugation, which was carried out at approximately 4° C. as soon as practicable. The resultant plasma was separated under low light conditions, transferred to uniquely labelled clear glass vials, placed in light proof boxes and frozen immediately at <−50° C.

[3] = tested on: D. discoideum cell growth; assay: D. discoideum growth assay; format: cell-based, Dictyostelium discoideum
Procedure: Wild type (A×2) D. discoideum cells were grown in shaking culture (in HL5 medium) for two days prior to growth assays. Cells (9900 in 495 μl of media) were added to each well of a 24 well plate and 5 μl of cannabinoid in DMSO (or DMSO only) was added to each well to achieve each described concentration (1% final DMSO concentration), and cells were maintained at 22° C. Cells were counted at 72 hours, and then every 24 hours. Quadruplicate repeats were used for each concentration.

[4] = Formulation analysis (decarboxylation of CBDA to CBD); format: physicochemical; conditions: 2:1:17 vehicle of ethanol, cremophor and saline
Excerpt: as §1
Formulation analysis was undertaken to determine whether CBDA decarboxylated to CBD because of temperature and/or the excipients in the formulation. […] Therefore, CBDA was not modified during formulation, and a 2:1:17 ratio can be used in future investigations for this phytocannabinoid.

[5] = tested on: D. discoideum growth upon R. planticola bacterial plates; assay: Bacterial plate screen; format: cell-based, Dictyostelium discoideum; conditions: CBDA 12.3 μM, CBD 16.7 μM; 4 days
Procedure: Heat killed (75° C. for 30 minutes) R. planticola was spread onto the plates and ˜50 wild-type A×2 cells were added and left to grow at 22° C. Plates were checked regularly for colonies.

[6] = tested on: D. discoideum development; assay: D. discoideum development assay; format: cell-based, Dictyostelium discoideum
Procedure: Wild type (A×2) D. discoideum cells were grown in HL5 shaking culture for two days prior to development assay. Cells were washed in phosphate buffer (KK2; 20 mM Potassium phosphate buffer, pH 6.1), and 1×10^7 cells were spread onto nitrocellulose filters (Millipore, Cork). Absorbent pads (Millipore, Cork), divided into quarters, were placed in 2 ml culture dishes and soaked with 0.5 ml KK2 containing the cannabinoids at 20 μM. 1 mM Valproic acid was used as a positive control while KK2 containing 1% DMSO was used as a solvent only control. Nitrocellulose filters containing cells were quartered and place upon absorbent pads and maintained in a humid environment at 22° C. for 24 h. Fruiting body morphology was recorded using a dissection microscope and camera.

[7] = female, comparative Table 11, females
[8] = male, comparative Table 10, males

SMILES	effect on percentage mortality ([1]; 100 mg/kg CBD (P≤0.01), 100 mg/kg CBDA (P=0.0656), CBD/CBDA ratio (P=0.0656))	effect on latency to seizure onset ([1]; 100 mg/kg CBD (P≤0.05), CBD/CBDA 9:1 (P≤0.05), CBDA 100 mg/kg (P=0.0929))	median score for the maximum seizure severity ([1]; 100 mg/kg, PTZ 90 mg/kg i.p. 60 min after compound, scale of Table 6, n=15)	effect on incidence of tonic-clonic seizures ([1]; 100 mg/kg, P≤0.1)	effect on seizure severity vs vehicle control ([1]; CBDA 100 mg/kg, CBD/CBDA 9:1 ratio (90/10 mg/kg), P≤0.05)	AUC0-t [2, 7]	Cmax [2, 7]	AUC0-t [2, 8]	Cmax [2, 8]	IC50 ([3]; Dictyostelium discoideum, 168 h, read-out: growth inhibitory constant (IC50))	concentration blocking growth ([3]; growth over one week)	concentration significantly inhibiting cell growth (P<0.05) ([3]; growth over one week)	conversion of CBDA to CBD during formulation [4]	cell survival (colony number) compared to control (solvent only) [5]	effect on development (fruiting body morphology) ([6]; 20 μM, 24 h on nitrocellulose filter)	effect on development (fruiting body morphology) ([6]; 1 mM, positive control, 24 h)
C=C(C)[C@@H]1CCC(C)=C[C@H]1c1c(O)cc(CCCCC)c(C(=O)O)c1O [CBDA, Cannabidiolic acid]	trend towards a significant reduction	trend towards increasing the latency to seizure onset	3	trend towards a reduction in tonic-clonic seizures	significant anti-convulsant effects	179 µg·h/mL	38600 ng/mL	80.5 µg·h/mL	24900 ng/mL	300 nM	20 µM	0.08 µM	not converted to CBD during formulation	No difference in colony number	able to aggregate and develop to form mature fruiting bodies	–
CCCC(CCC)C(=O)O [valproic acid]	–	–	–	–	–	–	–	–	–	–	–	–	–	–	–	able to aggregate but unable to undergo development to form fruiting bodies
